Data on one molecule can be found in paper PMC8331687 (ACS chemical biology, 2020).

In this assay the target is T1, ObiH (Pseudomonas fluorescens, UniProt A0A1X9LWZ7).
T1 sequence (A0A1X9LWZ7 1-440): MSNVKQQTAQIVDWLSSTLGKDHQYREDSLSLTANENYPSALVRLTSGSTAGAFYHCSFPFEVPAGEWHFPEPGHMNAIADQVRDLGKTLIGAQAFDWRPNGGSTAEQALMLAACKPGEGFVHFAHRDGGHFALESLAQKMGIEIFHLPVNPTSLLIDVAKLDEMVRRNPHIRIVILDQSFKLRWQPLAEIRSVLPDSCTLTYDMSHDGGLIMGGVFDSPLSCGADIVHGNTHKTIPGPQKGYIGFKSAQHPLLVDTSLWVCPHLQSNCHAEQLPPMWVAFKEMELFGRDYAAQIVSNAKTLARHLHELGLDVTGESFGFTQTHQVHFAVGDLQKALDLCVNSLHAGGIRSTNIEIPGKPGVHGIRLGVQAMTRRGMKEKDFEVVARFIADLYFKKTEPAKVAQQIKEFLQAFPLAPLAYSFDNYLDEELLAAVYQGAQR
Nature of the assay: UV-vis titration of quinonoid at […] nm. Format: binding.

Regarding `CC=O` [acetaldehyde], the Kd (as a rule, a measure of binding affinity in units of concentration) stood at 430 ± 15 µM.
